Laboratory results published in the NIST ThermoML archive (doi:10.1016/j.fluid.2007.05.030).
Where “and” joins values, the source holds several entries; their conditions need not be identical. Equal entries are not always repeated. Numbers after ± are expanded uncertainties.

Columns and labels:
[1] = excess molar enthalpy (molar enthalpy of mixing); xn = mol fraction of the nth substance listed; conditions: 101 kPa, Liquid
[2] = Liquid; for mass density: 101.33 kPa

CC(=O)OCCO [2-hydroxyethyl acetate] + CC(=O)OCCOC(C)=O
[1], 323.15 K, Flow calorimetry
Conditions | excess molar enthalpy [kcal/mol]
x1 = 0.103 | 0.0688 ± 0.000956
x1 = 0.231 | 0.13 ± 0.00143
x1 = 0.3777 | 0.163 ± 0.00191
x1 = 0.5367 | 0.167 ± 0.00191
x1 = 0.7024 | 0.142 ± 0.00167
x1 = 0.8299 | 0.098 ± 0.0012
x1 = 0.9272 | 0.0495 ± 0.000717

CC(=O)OCCO [2-hydroxyethyl acetate] + CC(=O)O
[1], 323.15 K, Flow calorimetry
Conditions | excess molar enthalpy [kcal/mol]
x2 = 0.0798 | -0.0241 ± 0.000478
x2 = 0.1906 | -0.0502 ± 0.000717
x2 = 0.2919 | -0.0636 ± 0.000956
x2 = 0.414 | -0.0664 ± 0.000956
x2 = 0.5236 | -0.0576 ± 0.000717
x2 = 0.6224 | -0.0437 ± 0.000717
x2 = 0.7332 | -0.0223 ± 0.000454
x2 = 0.8318 | -0.00323 ± 0.000263
x2 = 0.9203 | 0.00684 ± 0.000311

CC(=O)OCCO [2-hydroxyethyl acetate] + OCCO
[1], 323.15 K, Flow calorimetry
Conditions | excess molar enthalpy [kcal/mol]
x1 = 0.0784 | 0.0435 ± 0.000717
x1 = 0.1656 | 0.0808 ± 0.000956
x1 = 0.2632 | 0.111 ± 0.00143
x1 = 0.3732 | 0.132 ± 0.00167
x1 = 0.4718 | 0.139 ± 0.00167
x1 = 0.5815 | 0.136 ± 0.00167
x1 = 0.7043 | 0.117 ± 0.00143
x1 = 0.8065 | 0.0894 ± 0.0012
x1 = 0.9188 | 0.043 ± 0.000717

CC(=O)OCCOC(C)=O [ethylene diacetate] + O
[1], 323.15 K, Flow calorimetry
Conditions | excess molar enthalpy [kcal/mol]
x2 = 0.0844 | 0.15 ± 0.00167
x2 = 0.1574 | 0.24 ± 0.00263
x2 = 0.2211 | 0.299 ± 0.00335
x2 = 0.2771 | 0.331 ± 0.00359
x2 = 0.3713 | 0.36 ± 0.00382
x2 = 0.4473 | 0.361 ± 0.00382
x2 = 0.5624 | 0.304 ± 0.00335
x2 = 0.6455 | 0.245 ± 0.00263
x2 = 0.7342 | 0.182 ± 0.00215
x2 = 0.8138 | 0.125 ± 0.00143
x2 = 0.8793 | 0.0798 ± 0.000956
x2 = 0.9161 | 0.0535 ± 0.000717
x2 = 0.9444 | 0.0344 ± 0.000717
x2 = 0.9668 | 0.0189 ± 0.00043
x2 = 0.9808 | 0.00808 ± 0.000311

O [water]
Conditions | vapor or sublimation pressure
[2], 363.15 K | 70.09 ± 1.2 kPa and 69.93 ± 1.2 kPa

CC(=O)OCCOC(C)=O [ethylene diacetate]
Conditions | vapor or sublimation pressure
[2], 363.15 K | 2.744 ± 0.12 kPa [middle of 4 runs]

CC(=O)OCCOC(C)=O [ethylene diacetate] + OCCO
[1], 323.15 K, Flow calorimetry
Conditions | excess molar enthalpy [kcal/mol]
x1 = 0.0219 | 0.0483 ± 0.000717
x1 = 0.0451 | 0.0966 ± 0.0012
x1 = 0.0698 | 0.142 ± 0.00167
x1 = 0.096 | 0.19 ± 0.00215
x1 = 0.1241 | 0.232 ± 0.00263
x1 = 0.1541 | 0.268 ± 0.00287
x1 = 0.1862 | 0.302 ± 0.00335
x1 = 0.2208 | 0.332 ± 0.00359
x1 = 0.258 | 0.362 ± 0.00382
x1 = 0.2982 | 0.389 ± 0.00406
x1 = 0.3419 | 0.412 ± 0.0043
x1 = 0.3893 | 0.434 ± 0.00454
x1 = 0.4411 | 0.456 ± 0.00478
x1 = 0.4979 | 0.466 ± 0.00502
x1 = 0.5604 | 0.464 ± 0.00478
x1 = 0.6296 | 0.452 ± 0.00478
x1 = 0.7066 | 0.418 ± 0.0043
x1 = 0.7927 | 0.345 ± 0.00359
x1 = 0.8898 | 0.216 ± 0.00239

CC(=O)OCCO [2-hydroxyethyl acetate]
[2]
Conditions | mass density [kg/m3] | vapor or sublimation pressure
283.16 K | 1118.6 ± 0.9 | –
288.14 K | 1113.8 ± 0.9 | –
293.14 K | 1108.9 ± 0.8 | –
298.14 K | 1104.1 ± 0.8 | –
303.14 K | 1099.2 ± 0.8 | –
308.14 K | 1094.4 ± 0.8 | –
313.14 K | 1089.5 ± 0.8 | –
318.14 K | 1084.6 ± 0.8 | –
323.14 K | 1079.7 ± 0.7 | –
328.14 K | 1074.8 ± 0.7 | –
333.14 K | 1069.9 ± 0.7 | –
338.14 K | 1064.9 ± 0.7 | –
343.14 K | 1059.9 ± 0.7 | –
363.15 K | – | 2.228 ± 0.12 kPa [middle of 4 runs]
374.42 K | – | 3.79 ± 0.19 kPa
403.66 K | – | 13.81 ± 0.57 kPa
417.65 K | – | 23.64 ± 0.96 kPa
427.41 K | – | 33.46 ± 1.4 kPa
434.9 K | – | 43.3 ± 1.7 kPa
440.57 K | – | 53.13 ± 2.1 kPa
444.25 K | – | 62.95 ± 2.5 kPa
448.78 K | – | 72.79 ± 2.9 kPa

OCCO [1,2-ethanediol]
Conditions | vapor or sublimation pressure
[2], 363.15 K | 1.202 ± 0.11 kPa and 1.28 ± 0.11 kPa and 1.38 ± 0.1 kPa

CC(=O)O [acetic acid]
Conditions | vapor or sublimation pressure
[2], 363.15 K | 39.68 ± 0.72 kPa and 39.67 ± 0.72 kPa and 39.66 ± 0.72 kPa

CC(=O)OCCOC(C)=O [ethylene diacetate] + CC(=O)O
[1], 323.15 K, Flow calorimetry
Conditions | excess molar enthalpy [kcal/mol]
x2 = 0.1086 | 0.0418 ± 0.000717
x2 = 0.2045 | 0.0657 ± 0.000956
x2 = 0.2899 | 0.0791 ± 0.000956
x2 = 0.3665 | 0.0863 ± 0.0012
x2 = 0.4354 | 0.0894 ± 0.0012
x2 = 0.4979 | 0.0894 ± 0.0012
x2 = 0.5547 | 0.0877 ± 0.0012
x2 = 0.6067 | 0.0834 ± 0.0012
x2 = 0.6544 | 0.0784 ± 0.000956
x2 = 0.6982 | 0.0736 ± 0.000956
x2 = 0.7388 | 0.0669 ± 0.000956
x2 = 0.7763 | 0.06 ± 0.000956
x2 = 0.8112 | 0.0526 ± 0.000717
x2 = 0.8437 | 0.0447 ± 0.000717
x2 = 0.8741 | 0.0375 ± 0.000717
x2 = 0.9025 | 0.0292 ± 0.000478
x2 = 0.9291 | 0.0218 ± 0.000454
x2 = 0.9542 | 0.014 ± 0.000382
x2 = 0.9778 | 0.00669 ± 0.000311

CC(=O)O [acetic acid] + OCCO
excess molar enthalpy [kcal/mol], [1]
Conditions | 298.15 K | 323.15 K
x1 = 0.0489 | 0.00158 ± 0.000502 | –
x1 = 0.049 | – | 0.00485 ± 0.000574
x1 = 0.098 | 0.000992 ± 0.000502 | 0.007 ± 0.000621
x1 = 0.1472 | -0.000488 ± 0.000478 | 0.00631 ± 0.000598
x1 = 0.1964 | -0.0027 ± 0.000526 | –
x1 = 0.1965 | – | 0.00519 ± 0.000574
x1 = 0.2458 | -0.00595 ± 0.000598 | –
x1 = 0.2459 | – | 0.00304 ± 0.00055
x1 = 0.2953 | -0.00837 ± 0.000717 | –
x1 = 0.2954 | – | 0.00172 ± 0.000502
x1 = 0.3449 | -0.011 ± 0.000693 | –
x1 = 0.345 | – | -0.000206 ± 0.000478
x1 = 0.3946 | -0.0134 ± 0.000717 | –
x1 = 0.3947 | – | -0.00151 ± 0.000502
x1 = 0.4444 | -0.0147 ± 0.000765 | –
x1 = 0.4445 | – | -0.00229 ± 0.000526
x1 = 0.4944 | -0.0151 ± 0.000789 | –
x1 = 0.4945 | – | -0.00167 ± 0.000478
x1 = 0.5444 | -0.0136 ± 0.000717 | –
x1 = 0.5445 | – | -0.000263 ± 0.000478
x1 = 0.5946 | -0.0107 ± 0.000693 | –
x1 = 0.5947 | – | 0.00282 ± 0.000526
x1 = 0.6449 | -0.00621 ± 0.000717 | –
x1 = 0.645 | – | 0.00734 ± 0.000621
x1 = 0.6953 | 0.00032 ± 0.000478 | 0.0126 ± 0.000741
x1 = 0.7458 | 0.00667 ± 0.000621 | 0.0189 ± 0.00086
x1 = 0.7964 | 0.0138 ± 0.000765 | 0.0244 ± 0.000956
x1 = 0.8471 | 0.0196 ± 0.00086 | –
x1 = 0.8472 | – | 0.0289 ± 0.000956
x1 = 0.898 | 0.0224 ± 0.000932 | 0.0296 ± 0.0012
x1 = 0.9489 | 0.0184 ± 0.000956 | 0.0225 ± 0.000932

CC(=O)OCCO [2-hydroxyethyl acetate] + O
[1], 323.15 K, Flow calorimetry
Conditions | excess molar enthalpy [kcal/mol]
x2 = 0.1179 | -0.192 ± 0.00215
x2 = 0.2578 | -0.176 ± 0.00191
x2 = 0.3978 | -0.117 ± 0.00143
x2 = 0.546 | -0.0727 ± 0.000956
x2 = 0.6907 | -0.0373 ± 0.000717
x2 = 0.825 | -0.0169 ± 0.000406
x2 = 0.9399 | -0.00478 ± 0.000239
